Several values for one entry are separate records, joined by “and”; a condition that tells them apart may be missing. Identical values can stand only once. Like-named read-outs stand apart in the source and are kept apart here.
What was measured:
TAF1(2) bromodomain = biological target: T1, TAF1(2) bromodomain (Homo sapiens, UniProt P21675); assay: Eurofins/DiscoverX KdELECT, TAF1(2) bromodomain IC50; assay type: binding; conditions: 11-point 3-fold dilution, top concentration 10,000 nM
T1 construct: with specific focus on TAF1(2) bromodomain assessed by the KdELECT assay; purchased Eurofins/DiscoverX
T1 sequence (P21675 1519-1628 limits assumed): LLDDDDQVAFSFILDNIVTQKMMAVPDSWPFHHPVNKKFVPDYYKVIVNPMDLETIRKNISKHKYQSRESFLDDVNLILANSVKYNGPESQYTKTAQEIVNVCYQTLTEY
Experimental: (§1) The 3i-compounds underwent activity testing against a panel of 32 bromodomains using the Eurofins/DiscoverX bromoMAX assay, with specific focus on TAF1(2) bromodomain assessed by the KdELECT assay. In a similar manner, kinase activity was evaluated using a panel of 97 kinase proteins using the Eurofins/DiscoverX scanELECT and KdELECT assays, with specific focus on FLT3 protein. An 11-point 3-fold serial dilution of each test compound was prepared in 100% DMSO at 100x final test concentration and subsequently diluted to final concentration (DMSO 1%). […] Percent control was calculated using the following formula: ((test compound signal – positive control signal)/ (negative control signal – positive control signal)) × 100.

IGROV1 cells = assay: Cell viability, CellTiter Glo, IGROV1; assay type: cell-based
Experimental: (§2) Drug sensitivity and resistance testing in MOLM13, DU4475, HDQP1, and IGROV1 cells was conducted at the Finnish Institute for Molecular Medicine (FIMM), University of Helsinki. In brief, the effects of compounds on cell viability and cell death were quantified with Cell-Titer Glo (Promega) and CellTox Green (Promega), respectively. Compounds or vehicle control were included in cell culture medium at described concentrations for 72h using an automated liquid dispenser in 384-well format. For KASUMI-1 experiments, cells were grown in 96-well plates and similarly incubated with compounds at indicated concentrations for 72h in RPMI + 10% FCS + Gentamicin, followed by lysis and quantification of cell viability with Cell-Titer Glo (Promega).
(§3) Raw values from viability and toxicity assays were normalized to DMSO and plotted to heat maps in R using pheatmap (RRID:SCR_016418). Dose-response curves were generated using the drc package in R [40]. In brief, nonlinear modelling was performed to calculate IC50 values for each compound where possible and resulting curves from drc and experimental values were plotted using ggplot2 (RRID:SCR_014601).

DU4475 cells = assay: Cell viability, CellTiter Glo, DU4475; assay type: cell-based; conditions: for IC50: 72h; for CTG normalized_to_DMSO: fraction relative to DMSO
Experimental: as §2, §3

MOLM13 cells = assay: Cell viability, CellTiter Glo, MOLM13; assay type: cell-based; conditions: for IC50: 72h
Experimental: as §2, §3

FLT3 = biological target: T2, FLT3 (Homo sapiens, UniProt P36888); assay: Eurofins/DiscoverX KdELECT, FLT3 kinase IC50; assay type: binding; conditions: 11-point 3-fold dilution, top concentration 10,000 nM
T2 construct: purchased Eurofins/DiscoverX
T2 sequence (P36888 27-993): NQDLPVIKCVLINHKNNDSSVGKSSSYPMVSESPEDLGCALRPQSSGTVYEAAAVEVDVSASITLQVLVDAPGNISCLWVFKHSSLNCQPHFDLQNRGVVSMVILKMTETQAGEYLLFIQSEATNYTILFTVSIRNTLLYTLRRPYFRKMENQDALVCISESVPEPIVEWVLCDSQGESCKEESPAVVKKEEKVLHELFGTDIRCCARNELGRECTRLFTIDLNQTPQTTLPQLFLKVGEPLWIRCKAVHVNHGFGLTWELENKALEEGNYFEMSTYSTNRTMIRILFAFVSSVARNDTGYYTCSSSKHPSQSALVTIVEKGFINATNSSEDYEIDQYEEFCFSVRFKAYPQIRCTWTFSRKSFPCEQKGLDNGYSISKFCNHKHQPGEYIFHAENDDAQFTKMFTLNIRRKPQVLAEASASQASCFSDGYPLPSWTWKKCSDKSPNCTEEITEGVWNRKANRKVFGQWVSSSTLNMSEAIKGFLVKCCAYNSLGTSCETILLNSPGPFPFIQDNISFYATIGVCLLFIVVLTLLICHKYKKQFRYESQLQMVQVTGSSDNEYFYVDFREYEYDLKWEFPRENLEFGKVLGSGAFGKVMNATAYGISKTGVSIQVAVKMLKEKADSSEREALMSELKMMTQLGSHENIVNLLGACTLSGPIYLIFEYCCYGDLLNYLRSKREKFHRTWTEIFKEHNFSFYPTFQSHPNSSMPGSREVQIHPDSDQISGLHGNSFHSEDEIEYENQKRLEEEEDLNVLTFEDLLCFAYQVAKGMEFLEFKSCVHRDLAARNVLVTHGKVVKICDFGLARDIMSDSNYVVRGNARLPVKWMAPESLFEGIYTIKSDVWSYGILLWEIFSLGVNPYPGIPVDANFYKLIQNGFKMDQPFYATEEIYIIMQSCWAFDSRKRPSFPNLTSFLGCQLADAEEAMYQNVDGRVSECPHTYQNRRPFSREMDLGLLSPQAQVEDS
Experimental: as §1

[1] = kdELECT, read-out: TAF1(2) IC50
[2] = 72h, one independent experiment per value, read-out: IGROV1 IC50, individual dose-response curve (CellTiter Glo)
[3] = Homo sapiens, IGROV-1, 72 h, one independent experiment per value, read-out: IGROV1 IC50, individual dose-response curve (CellTiter Glo)
[4] = one independent experiment per value, read-out: DU4475 IC50, individual dose-response curve (CellTiter Glo)
[5] = Homo sapiens, DU-4475, 72 h, mean of n = 3 independent experiments, read-out: DU4475 IC50 (CellTiter Glo)
[6] = Homo sapiens, DU-4475, 72 h, one independent experiment per value, read-out: DU4475 IC50, individual dose-response curve (CellTiter Glo)
[7] = one independent experiment per value, read-out: MOLM13 IC50, individual dose-response curve (CellTiter Glo)
[8] = Homo sapiens, MOLM-13, 72 h, mean of n = 3 independent experiments, read-out: MOLM13 IC50 (CellTiter Glo)
[9] = Homo sapiens, IGROV-1, 72 h, mean of n = 3 independent experiments, read-out: IGROV1 IC50 (CellTiter Glo)

Row | IC50 (TAF1(2) bromodomain; [1]) | IC50 (MOLM13 cells; [8]) | SMILES | IC50 (IGROV1 cells; [2]) | IC50 (IGROV1 cells; [3]) | IC50 (DU4475 cells; [4]) | CTG normalized_to_DMSO (DU4475 cells; DU4475, exp 1, 0.3 µM) | CTG normalized_to_DMSO (DU4475 cells; DU4475, exp 1, 1 µM) | CTG normalized_to_DMSO (DU4475 cells; DU4475, exp 1, 3 µM) | CTG normalized_to_DMSO (DU4475 cells; DU4475, exp 1, 10 µM) | CTG normalized_to_DMSO (DU4475 cells; DU4475, exp 1, 30 µM) | IC50 (DU4475 cells; [5]) | IC50 (DU4475 cells; [6]) | IC50 (MOLM13 cells; [7]) | IC50 (FLT3) | IC50 (IGROV1 cells; [9]) | IC50 (TAF1(2) bromodomain; TAF1(2) IC50, kdELECT) | IC50 (IGROV1 cells; 72h, mean of n = 3 independent experiments, read-out: IGROV1 IC50 (CellTiter Glo)) | activity in DU4475 cells (DU4475 cells; compared to dual FLT3/TAF1(2) inhibitors 3i-1103, 3i-1246, 3i-1248) | IC50 (MOLM13 cells; mean of n = 3 independent experiments, read-out: MOLM13 IC50 (CellTiter Glo)) | anti-proliferative activity in MOLM13 cells (MOLM13 cells; comparison within the compound set)
1 | 480 nM | 122 nM | COc1ccc(-c2cc(NC(=O)c3ccc(C(C)(C)C)cc3)[nH]n2)cc1 [Compound 3i-1103] | > 30 µM | 17.8 µM | 18.2 µM and 19 µM | 1.0025 | 0.9677 | 0.8934 | 0.6779 | 0.07396 | 19.8 µM | 22.1 µM | 93.4 nM and 80.7 nM and 190 nM | < 1000 nM |  |  |  |  |  | 
2 |  |  | CC(C)(C)c1ccc(C(=O)Nc2cc(-c3ccccc3)n[nH]2)cc1 [Compound 3i-1247, 4-(tert-butyl)-N-(3-phenyl-1H-pyrazol-5-yl)benzamide] | 3.5 µM and 3.8 µM and 2.5 µM |  | 2.5 µM and 2.9 µM and 2.7 µM |  |  |  |  |  |  |  | 38.7 nM and 137 nM and 42.4 nM | 1.5 nM |  | > 10000 nM | 3.3 µM | superior activity | 72.6 nM | most potent compound overall
3 | 5.1 nM | 940 nM | Cn1cc(-c2cc(NC(=O)c3ccc(C(C)(C)C)cc3)n[nH]2)ccc1=O [Compound 3i-1248, 4-(tert-butyl)-N-(5-(1-methyl-6-oxo-1,6-dihydropyridin-3-yl)-1H-pyrazol-3-yl)benzamide] | 10.5 µM and 7.7 µM | 11.8 µM | 9.8 µM and 9.5 µM |  |  |  |  |  | 9.4 µM | 8.8 µM | 539 nM and 1580 nM and 702 nM | < 1000 nM | 10 µM |  |  |  |  | 

Row | SMILES | IC50 (TAF1(2) bromodomain; [1]) | IC50 (MOLM13 cells; [8]) | IC50 (IGROV1 cells; [2]) | IC50 (IGROV1 cells; [3]) | IC50 (DU4475 cells; [4]) | CTG normalized_to_DMSO (DU4475 cells; DU4475, exp 1, 0.3 µM) | CTG normalized_to_DMSO (DU4475 cells; DU4475, exp 1, 1 µM) | CTG normalized_to_DMSO (DU4475 cells; DU4475, exp 1, 3 µM) | CTG normalized_to_DMSO (DU4475 cells; DU4475, exp 1, 10 µM) | CTG normalized_to_DMSO (DU4475 cells; DU4475, exp 1, 30 µM) | IC50 (DU4475 cells; [5]) | IC50 (DU4475 cells; [6]) | IC50 (MOLM13 cells; [7]) | IC50 (FLT3) | IC50 (IGROV1 cells; [9]) | IC50 (TAF1(2) bromodomain; TAF1(2) IC50, kdELECT) | IC50 (IGROV1 cells; 72h, mean of n = 3 independent experiments, read-out: IGROV1 IC50 (CellTiter Glo)) | activity in DU4475 cells (DU4475 cells; compared to dual FLT3/TAF1(2) inhibitors 3i-1103, 3i-1246, 3i-1248) | IC50 (MOLM13 cells; mean of n = 3 independent experiments, read-out: MOLM13 IC50 (CellTiter Glo)) | anti-proliferative activity in MOLM13 cells (MOLM13 cells; comparison within the compound set)
4 | Cc1cc(-c2cc(NC(=O)c3ccc(C(C)(C)C)cc3)[nH]n2)ccn1 [Compound 3i-1246, 4-(tert-butyl)-N-(3-(2-methylpyridin-4-yl)-1H-pyrazol-5-yl)benzamide] | 280 nM and 260 nM | 293 nM | 11.6 µM and 8.8 µM | 12.1 µM | 7.6 µM and 7.8 µM |  |  |  |  |  | 7.5 µM | 7.1 µM | 183 nM and 423 nM and 272 nM | 18 nM | 10.9 µM |  |  |  |  | 

Reference: paper PMC11952222, “Development and comparison of single FLT3-inhibitors to dual FLT3/TAF1-inhibitors as an anti-leukemic approach” (PLOS One, 2025)
